Tests used:
cotton = assay: Preemergent control of plant species; type: in vivo, Gossypium spp.; details: Gossypium hirsutum, pre-emergence, 336 h; 0.25 lb/acre; read-out: percent preemergent control
Outline: (§1)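 Seeds sown in agricultural soil in greenhouse beds, then aqueous-emulsion compositions applied uniformly to the bed surface at listed rates. Beds kept two weeks under greenhouse growth conditions with watering. Control expressed as growth reduction versus water-treated beds of the same species.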

rape = assay: Preemergent control of plant species; type: in vivo, Brassica napus; details: Brassica napus, pre-emergence, 336 h; 0.25 lb/acre; read-out: percent preemergent control
Outline: as §1

soybean = assay: Preemergent control of plant species; type: in vivo, Glycine max.; details: Glycine max, pre-emergence, 336 h; 0.25 lb/acre; read-out: percent preemergent control
Outline: as §1

sugar beet = assay: Preemergent control of plant species; type: in vivo, Beta saccharifera; details: Beta vulgaris, pre-emergence, 336 h; 0.25 lb/acre; read-out: percent preemergent control
Outline: as §1

jimsonweed = assay: Preemergent control of plant species; type: in vivo, Datura stramonium; details: Datura stramonium, pre-emergence, 336 h; 0.25 lb/acre; read-out: percent preemergent control
Outline: as §1

annual morning glory = assay: Preemergent control of plant species; type: in vivo, Ipomoea spp.; details: Ipomoea, pre-emergence, 336 h; 0.25 lb/acre; read-out: percent preemergent control
Outline: as §1

pigweed = assay: Preemergent control of plant species; type: in vivo, Amaranthus spp.; details: Amaranthus retroflexus, pre-emergence, 336 h; 0.25 lb/acre; read-out: percent preemergent control
Description: (§2) The seeds of various species of plants were planted in beds of good agricultural soil in a greenhouse. A number of compositions of the present invention, generally in the nature of an aqueous emulsion, were applied at rates listed in the table so as to deposit a predetermined amount of active ingredients uniformly throughout the surface of the bed. Another seed bed was treated only with water to serve as a control. After treatment the seed beds were maintained for two weeks under greenhouse conditions conducive for good plant growth and watered as necessary. Control refers to the reduction in growth compared to the observed results of the same untreated species.

velvetleaf = assay: Preemergent control of plant species; type: in vivo, Abutilon theophrasti; details: Abutilon theophrasti, pre-emergence, 336 h; 0.25 lb/acre; read-out: percent preemergent control
Outline: as §1

corn = assay: Preemergent control of plant species; type: in vivo, Zea mays; details: Zea mays, pre-emergence, 336 h; 0.25 lb/acre; read-out: percent preemergent control
Outline: as §1

rice [1] = assay: Preemergent control of plant species; type: in vivo, Oryza sativa; details: Oryza sativa, pre-emergence, 336 h; 0.25 lb/acre; read-out: percent preemergent control
Outline: as §1

sorghum = assay: Preemergent control of plant species; type: in vivo, Sorghum vulgare; details: Sorghum, pre-emergence, 336 h; 0.25 lb/acre; read-out: percent preemergent control
Outline: as §1

wheat = assay: Preemergent control of plant species; type: in vivo, Triticum aestivum; details: Triticum aestivum, pre-emergence, 336 h; 0.25 lb/acre; read-out: percent preemergent control
Outline: as §1

barnyardgrass [2] = assay: Preemergent control of plant species; type: in vivo, Echinochloa crusgalli; details: Echinochloa crus-galli, pre-emergence, 336 h; 0.25 lb/acre; read-out: percent preemergent control
Outline: as §1

crabgrass = assay: Preemergent control of plant species; type: in vivo, Digitaria spp.; details: Digitaria sanguinalis, pre-emergence, 336 h; 0.25 lb/acre; read-out: percent preemergent control
Description: as §2

johnson grass = assay: Preemergent control of plant species; type: in vivo, Sorghum halepense; details: Sorghum halepense, pre-emergence, 336 h; 0.25 lb/acre; read-out: percent preemergent control
Outline: as §1

wild oats = assay: Preemergent control of plant species; type: in vivo; details: Avena fatua, pre-emergence, 336 h; 0.25 lb/acre; read-out: percent preemergent control
Outline: as §1

yellow foxtail = assay: Preemergent control of plant species; type: in vivo, Setaria lutescens; details: Setaria, pre-emergence, 336 h; 0.25 lb/acre; read-out: percent preemergent control
Outline: as §1

yellow nutsedge [3] = assay: Preemergent control of plant species; type: in vivo, Cyperus esculentus; details: Cyperus, pre-emergence, 336 h; 0.25 lb/acre; read-out: percent preemergent control
Outline: as §1

rice [4] = assay: Control of aquatic plant species (paddy water); type: in vivo, Oryza sativa; details: Oryza sativa, 216 h, nine days, read-out: Percent control
Outline: (§3)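 Plants transplanted at 1-2 inch stage into soil, flooded about 1 inch deep; acetone concentrate of compound injected into paddy water at varied volumes to set concentration. Percent control scored nine days after application.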

barnyardgrass [5] = assay: Control of aquatic plant species (paddy water); type: in vivo, Echinochloa crusgalli; details: Echinochloa crus-galli, 216 h, nine days, read-out: Percent control
Description: In testing for such utility, the plant species to be tested were transplanted into 16 oz. containers into about 2 inches of soil when they were in the 1-2 inch stage and then flooded to a depth of about 1 inch. An acetone concentrate of the chemical to be tested was then injected into the paddy water, the volume injected being varied as desired to provide the desired concentration. Percent control was evaluated nine days after application.

sprangletop = assay: Control of aquatic plant species (paddy water); type: in vivo, Leptochloa filiformis; details: Leptochloa filiformis, 216 h, nine days, read-out: Percent control
Outline: as §3

yellow nutsedge [6] = assay: Control of aquatic plant species (paddy water); type: in vivo, Cyperus esculentus; details: Cyperus, 216 h, nine days, read-out: Percent control
Outline: as §3

[7] = tested on: nitrification of ammonium nitrogen; assay: Suppression of nitrification of ammonium nitrogen in soil; details: 27° C.
Outline: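 Soil (20 g) moistened to its 1/3 bar tension value, mixed with test chemical and incubated sealed for two weeks at 27° C. Nitrate extracted with ammonium sulfate solution and measured by nitrate-specific ion electrode; value given as % NH4-N remaining.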

SMILES: Cc1cc(C)n2nc(S(=O)(=O)Nc3ccccc3Br)nc2n1 [Compound 41]
- plant injury at 280.212 g/ha (cotton): 40%
- plant injury at 280.212 g/ha (rape): 80%
- plant injury at 280.212 g/ha (soybean): 25%
- plant injury at 280.212 g/ha (sugar beet): 80%
- pest or weed control at 280.212 g/ha (jimsonweed): 0%
- pest or weed control at 280.212 g/ha (annual morning glory): 10%
- pest or weed control at 280.212 g/ha (pigweed): 0%
- pest or weed control at 280.212 g/ha (velvetleaf): 10%
- plant injury at 280.212 g/ha (corn): 0%
- plant injury at 280.212 g/ha (rice [1]): 0%
- plant injury at 280.212 g/ha (sorghum): 20%
- plant injury at 280.212 g/ha (wheat): 0%
- pest or weed control at 280.212 g/ha (barnyardgrass [2]): 80%
- pest or weed control at 280.212 g/ha (crabgrass): 10%
- pest or weed control at 280.212 g/ha (johnson grass): 35%
- pest or weed control at 280.212 g/ha (wild oats): 0%
- pest or weed control at 280.212 g/ha (yellow foxtail): 30%
- pest or weed control at 280.212 g/ha (yellow nutsedge [3]): 70%
- pest or weed control at 1000 g/ha (rice [4]; 1.0 Kg/Ha): 97%
- pest or weed control at 1000 g/ha (barnyardgrass [5]; 1.0 Kg/Ha): 99%
- pest or weed control at 1000 g/ha (sprangletop; 1.0 Kg/Ha): 95%
- pest or weed control at 1000 g/ha (yellow nutsedge [6]; 1.0 Kg/Ha): 80%
- % NH4-N Remaining After 2 Weeks Incubation ([7]; 0.06 ppm): 23%
- % NH4-N Remaining After 2 Weeks Incubation ([7]; 0.1 ppm): 54%
- % NH4-N Remaining After 2 Weeks Incubation ([7]; 1 ppm): 87%
- % NH4-N Remaining After 2 Weeks Incubation ([7]; 10 ppm): 100%

SMILES: Cc1cc(C)n2nc(S(=O)(=O)Nc3c(Cl)cccc3Br)nc2n1 [Compound 39]
- plant injury at 280.212 g/ha (cotton): 95%
- plant injury at 280.212 g/ha (rape): 95%
- plant injury at 280.212 g/ha (soybean): 95%
- plant injury at 280.212 g/ha (sugar beet): 97%
- pest or weed control at 280.212 g/ha (jimsonweed): 100%
- pest or weed control at 280.212 g/ha (annual morning glory): 90%
- pest or weed control at 280.212 g/ha (pigweed): 100%
- pest or weed control at 280.212 g/ha (velvetleaf): 95%
- plant injury at 280.212 g/ha (corn): 95%
- plant injury at 280.212 g/ha (rice [1]): 97%
- plant injury at 280.212 g/ha (sorghum): 95%
- plant injury at 280.212 g/ha (wheat): 0%
- pest or weed control at 280.212 g/ha (barnyardgrass [2]): 97%
- pest or weed control at 280.212 g/ha (crabgrass): 70%
- pest or weed control at 280.212 g/ha (johnson grass): 95%
- pest or weed control at 280.212 g/ha (wild oats): 0%
- pest or weed control at 280.212 g/ha (yellow foxtail): 97%
- pest or weed control at 280.212 g/ha (yellow nutsedge [3]): 100%
- pest or weed control at 31 g/ha (rice [4]; 0.031 Kg/Ha): 0%
- pest or weed control at 250 g/ha (rice [4]; 0.25 Kg/Ha): 75%
- pest or weed control at 31 g/ha (barnyardgrass [5]; 0.031 Kg/Ha): 20%
- pest or weed control at 250 g/ha (barnyardgrass [5]; 0.25 Kg/Ha): 99%
- pest or weed control at 31 g/ha (sprangletop; 0.031 Kg/Ha): 0%
- pest or weed control at 250 g/ha (sprangletop; 0.25 Kg/Ha): 75%
- pest or weed control at 31 g/ha (yellow nutsedge [6]; 0.031 Kg/Ha): 85%
- pest or weed control at 250 g/ha (yellow nutsedge [6]; 0.25 Kg/Ha): 99%
- % NH4-N Remaining After 2 Weeks Incubation ([7]; 0.01 ppm): 49%
- % NH4-N Remaining After 2 Weeks Incubation ([7]; 0.1 ppm): 78%
- % NH4-N Remaining After 2 Weeks Incubation ([7]; 1 ppm): 91%
- % NH4-N Remaining After 2 Weeks Incubation ([7]; 10 ppm): 100%

Source: patent publication US4740233A, “Substituted 1,2,4-triazolo[1,5-a]-pyrimidine-2-sulfonamides and compositions and methods of controlling undesired vegetation and suppressing the nitrification of ammonium nitrogen in soil” (The Dow Chemical Company, priority 1986, dated 1988)
